Source: publication PMC6403232, “Production and Anticancer Activity of an L-Asparaginase from Bacillus licheniformis Isolated from the Red Sea, Saudi Arabia” (Scientific Reports, 2019)

System: T1, ASNase (L-asparaginase) from Bacillus licheniformis KKU-KH14
T1 construct: gene ansZ
Settings: L-asparagine 0.0-0.1 M; standard assay Tris-HCl pH 7.4, 30 min; temperature of the kinetic assay not stated

SMILES: NC(=O)C[C@H](N)C(=O)O [L-asparagine]
- Km: 50 mM
